In ChEMBL document CHEMBL5126592, “Design, synthesis and activity against drug-resistant bacteria evaluation of C-20, C-23 modified 5-O-mycaminosyltylonolide derivatives” (Eur J Med Chem, 2022):
Values after ≈ are worked out from the molar mass of the structure shown. Active and inactive are the calls of the source. No cut-off for these calls is given here.

Assays:
Format in all cases: functional
[1] = test system: Cronobacter sakazakii; assay: Antibacterial activity against Cronobacter sakazakii ATCC 29544 incubated for 16 to 20 hrs by broth microdilution method; details: time 16-20 hrs
[2] = test system: Escherichia coli; assay: Induction of drug resistance in Escherichia coli ATCC 25922 assessed as increase in MIC measured after 30 passages by broth microdilution method
[3] = test system: Staphylococcus aureus; assay: Antibacterial activity against Staphylococcus aureus ATCC 29213 incubated for 16 to 20 hrs using 10^3 CFU/ml bacterial inoculum by broth microdilution method; details: time 16-20 hrs
[4] = test system: Escherichia coli; assay: Antibacterial activity against Escherichia coli incubated for 16 to 20 hrs by broth microdilution method; details: time 16-20 hrs
[5] = test system: Streptococcus dysgalactiae; assay: Antibacterial activity against Streptococcus dysgalactiae incubated for 16 to 20 hrs by broth microdilution method; details: time 16-20 hrs
[6] = test system: Klebsiella pneumoniae; assay: Antibacterial activity against Klebsiella pneumoniae ATCC 13883 incubated for 16 to 20 hrs by broth microdilution method; details: time 16-20 hrs
[7] = test system: Staphylococcus aureus; assay: Antibacterial activity against Staphylococcus aureus incubated for 16 to 20 hrs by broth microdilution method; details: time 16-20 hrs
[8] = test system: Staphylococcus aureus; assay: Antibacterial activity against Staphylococcus aureus ATCC 29213 incubated for 16 to 20 hrs using 10^4 CFU/ml bacterial inoculum by broth microdilution method; details: time 16-20 hrs
[9] = test system: Staphylococcus aureus; assay: Antibacterial activity against Staphylococcus aureus ATCC 29213 at pH 8.6 incubated for 16 to 20 hrs in presence of 5% foetal bovine serum by broth microdilution method; details: time 16-20 hrs
[10] = test system: Staphylococcus aureus; assay: Antibacterial activity against Staphylococcus aureus ATCC 29213 at pH 8.6 incubated for 16 to 20 hrs in presence of 50% foetal bovine serum by broth microdilution method; details: time 16-20 hrs
[11] = test system: Staphylococcus chromogenes; assay: Antibacterial activity against Staphylococcus chromogenes incubated for 16 to 20 hrs by broth microdilution method; details: time 16-20 hrs
[12] = test system: Staphylococcus aureus; assay: Antibacterial activity against Staphylococcus aureus ATCC 29213 incubated for 16 to 20 hrs using 10^5 CFU/ml bacterial inoculum by broth microdilution method; details: time 16-20 hrs
[13] = test system: Staphylococcus aureus; assay: Antibacterial activity against Staphylococcus aureus ATCC 29213 at pH 8.6 incubated for 16 to 20 hrs in presence of 10% foetal bovine serum by broth microdilution method; details: time 16-20 hrs
[14] = test system: Enterococcus faecium; assay: Antibacterial activity against Enterococcus faecium incubated for 16 to 20 hrs by broth microdilution method; details: time 16-20 hrs
[15] = test system: Pseudomonas aeruginosa; assay: Antibacterial activity against Pseudomonas aeruginosa LTP-3 incubated for 16 to 20 hrs by broth microdilution method; details: time 16-20 hrs
[16] = test system: Staphylococcus aureus; assay: Antibacterial activity against Staphylococcus aureus ATCC 29213 at pH 8.6 incubated for 16 to 20 hrs in presence of 25% foetal bovine serum by broth microdilution method; details: time 16-20 hrs
[17] = test system: Escherichia coli; assay: Antibacterial activity against Escherichia coli ATCC 25922 incubated for 16 to 20 hrs by broth microdilution method; details: time 16-20 hrs
[18] = test system: Staphylococcus aureus; assay: Antibacterial activity against Staphylococcus aureus ATCC 29213 incubated for 16 to 20 hrs using 10^6 CFU/ml bacterial inoculum by broth microdilution method; details: time 16-20 hrs
[19] = test system: Escherichia coli; assay: Antibacterial activity against Escherichia coli ATCC 25922 incubated for 16 to 20 hrs in presence of 10% foetal bovine serum by broth microdilution method; details: time 16-20 hrs
[20] = test system: Escherichia coli; assay: Antibacterial activity against Escherichia coli ATCC 25922 incubated for 16 to 20 hrs using 10^4 CFU/ml bacterial inoculum by broth microdilution method; details: time 16-20 hrs
[21] = test system: Escherichia coli; assay: Antibacterial activity against Escherichia coli ATCC 25922 incubated for 16 to 20 hrs using 10^3 CFU/ml bacterial inoculum by broth microdilution method; details: time 16-20 hrs
[22] = test system: Escherichia coli; assay: Antibacterial activity against Escherichia coli ATCC 25922 incubated for 16 to 20 hrs in presence of 25% foetal bovine serum by broth microdilution method; details: time 16-20 hrs
[23] = test system: Escherichia coli; assay: Antibacterial activity against Escherichia coli ATCC 25922 incubated for 16 to 20 hrs using 10^6 CFU/ml bacterial inoculum by broth microdilution method; details: time 16-20 hrs
[24] = test system: Escherichia coli; assay: Antibacterial activity against Escherichia coli ATCC 25922 incubated for 16 to 20 hrs in presence of 5% foetal bovine serum by broth microdilution method; details: time 16-20 hrs
[25] = test system: Escherichia coli; assay: Antibacterial activity against Escherichia coli ATCC 25922 incubated for 16 to 20 hrs in presence of 50% foetal bovine serum by broth microdilution method; details: time 16-20 hrs
[26] = test system: Escherichia coli; assay: Antibacterial activity against Escherichia coli ATCC 25922 incubated for 16 to 20 hrs using 10^7 CFU/ml bacterial inoculum by broth microdilution method; details: time 16-20 hrs
[27] = test system: Escherichia coli; assay: Antibacterial activity against Escherichia coli ATCC 25922 incubated for 16 to 20 hrs in absence of foetal bovine serum by broth microdilution method; details: time 16-20 hrs
[28] = test system: Staphylococcus aureus; assay: Antibacterial activity against Staphylococcus aureus ATCC 25923 incubated for 16 to 20 hrs by broth microdilution method; details: time 16-20 hrs
[29] = test system: Escherichia coli; assay: Antibacterial activity against Escherichia coli ATCC 25922 incubated for 16 to 20 hrs using 10^5 CFU/ml bacterial inoculum by broth microdilution method; details: time 16-20 hrs
[30] = test system: Staphylococcus aureus; assay: Antibacterial activity against Staphylococcus aureus ATCC 29213 incubated for 16 to 20 hrs using 10^7 CFU/ml bacterial inoculum by broth microdilution method; details: time 16-20 hrs
[31] = test system: Staphylococcus aureus; assay: Antibacterial activity against Staphylococcus aureus ATCC 29213 at pH 8.6 incubated for 16 to 20 hrs in absence of foetal bovine serum by broth microdilution method; details: time 16-20 hrs

SMILES	MIC [1] [µg/mL]	MIC [3] [µg/mL]	MIC [4] [µg/mL]	MIC [5] [µg/mL]	MIC [6] [µg/mL]	MIC [7] [µg/mL]	MIC [8] [µg/mL]	MIC [9] [µg/mL]	MIC [10] [µg/mL]	MIC [11] [µg/mL]	MIC [12] [µg/mL]	MIC [13] [µg/mL]	MIC [14] [µg/mL]	MIC [15] [µg/mL]	MIC [16] [µg/mL]	MIC [17] [µg/mL]	MIC [18] [µg/mL]	MIC [19] [µg/mL]	MIC [20] [µg/mL]	MIC [28] [µg/mL]	also measured
CC(=O)NC[C@H]1CN(c2ccc(N3CCOCC3)c(F)c2)C(=O)O1 [LINEZOLID]	> 32	0.25 (≈ 0.741 µM)	32 (≈ 94.9 µM)	2 (≈ 5.93 µM)	> 32	1 (≈ 2.96 µM)	0.25 (≈ 0.741 µM)	> 32	> 32	1 (≈ 2.96 µM)	0.5 (≈ 1.48 µM)	> 32	2 (≈ 5.93 µM)	32 (≈ 94.9 µM)	> 32	> 32	1 (≈ 2.96 µM)				Activity [2]: Active
C[C@@H](O)[C@H]1C(=O)N2C(C(=O)O)=C(S[C@@H]3CN[C@H](C(=O)N(C)C)C3)[C@H](C)[C@H]12 [MEROPENEM]	0.0625 (≈ 0.163 µM)		< 0.0625	8 (≈ 20.9 µM)	< 0.0625	< 0.0625				0.0625 (≈ 0.163 µM)			8 (≈ 20.9 µM)	< 0.0625		0.125 (≈ 0.326 µM)		< 0.0625	< 0.0625	0.0625 (≈ 0.163 µM)	MIC [21]: < 0.0625 µg/mL; MIC [22]: < 0.0625 µg/mL; MIC [23]: < 0.0625 µg/mL; MIC [24]: < 0.0625 µg/mL; MIC [25]: < 0.0625 µg/mL; MIC [26]: < 0.0625 µg/mL; MIC [27]: < 0.0625 µg/mL; MIC [29]: < 0.0625 µg/mL
CC[C@H]1OC(=O)C[C@@H](O)[C@H](C)[C@@H](O[C@@H]2O[C@H](C)[C@@H](O)[C@H](N(C)C)[C@H]2O)[C@@H](CCN(C)Cc2cn(-c3cnc4ccccc4c3)nn2)C[C@@H](C)C(=O)/C=C/C(C)=C/[C@@H]1CO	8 (≈ 9.74 µM)		4 (≈ 4.87 µM)	0.5 (≈ 0.609 µM)	2 (≈ 2.44 µM)	0.25 (≈ 0.304 µM)				0.125 (≈ 0.152 µM)			2 (≈ 2.44 µM)	4 (≈ 4.87 µM)		4 (≈ 4.87 µM)				1 (≈ 1.22 µM)	
CC[C@H]1OC(=O)C[C@@H](O)[C@H](C)[C@@H](O[C@@H]2O[C@H](C)[C@@H](O[C@H]3C[C@@](C)(O)[C@@H](O)[C@H](C)O3)[C@H](N(C)C)[C@H]2O)[C@@H](CC=O)C[C@@H](C)C(=O)/C=C/C(C)=C/[C@@H]1CO[C@@H]1O[C@H](C)[C@@H](O)[C@@H](OC)[C@H]1OC [TYLOSIN]	> 32	0.5 (≈ 0.546 µM)	> 32	1 (≈ 1.09 µM)	> 32	0.25 (≈ 0.273 µM)	0.5 (≈ 0.546 µM)	> 32	> 32	0.5 (≈ 0.546 µM)	0.5 (≈ 0.546 µM)	> 32	1 (≈ 1.09 µM)	32 (≈ 34.9 µM)	> 32	> 32	1 (≈ 1.09 µM)	> 32	> 32	0.5 (≈ 0.546 µM)	MIC [21]: > 32 µg/mL; MIC [30]: 1 µg/mL (≈ 1.09 µM); MIC [22]: > 32 µg/mL; MIC [23]: > 32 µg/mL; MIC [24]: > 32 µg/mL; MIC [25]: > 32 µg/mL; MIC [26]: > 32 µg/mL; MIC [27]: > 32 µg/mL; MIC [31]: 2 µg/mL (≈ 2.18 µM); MIC [29]: > 32 µg/mL
CC[C@H]1OC(=O)C[C@@H](O)[C@H](C)[C@@H](O[C@@H]2O[C@H](C)[C@@H](O)[C@H](N(C)C)[C@H]2O)[C@@H](CCN(C)Cc2cn(-c3cnc4ccccc4c3)nn2)C[C@@H](C)C(=O)/C=C/C(C)=C/[C@@H]1CN1CCCCCCC1	4 (≈ 4.37 µM)		2 (≈ 2.18 µM)	0.5 (≈ 0.546 µM)	1 (≈ 1.09 µM)	0.5 (≈ 0.546 µM)				1 (≈ 1.09 µM)			2 (≈ 2.18 µM)	1 (≈ 1.09 µM)		2 (≈ 2.18 µM)				0.125 (≈ 0.136 µM)	
CC[C@H]1OC(=O)C[C@@H](O)[C@H](C)[C@@H](O[C@@H]2O[C@H](C)[C@@H](O)[C@H](N(C)C)[C@H]2O)[C@@H](CCN(C)Cc2cn(-c3cnc4ccccc4c3)nn2)C[C@@H](C)C(=O)/C=C/C(C)=C/[C@@H]1CN(C)C	4 (≈ 4.72 µM)		2 (≈ 2.36 µM)	2 (≈ 2.36 µM)	2 (≈ 2.36 µM)	0.25 (≈ 0.295 µM)				0.5 (≈ 0.59 µM)			1 (≈ 1.18 µM)	2 (≈ 2.36 µM)		2 (≈ 2.36 µM)				0.25 (≈ 0.295 µM)	
